Laboratory results taken from patent publication US6376710B2, “Amidine compounds and their use as pesticides” (Sumitomo Chemical Co., Ltd., priority 2000, dated 2002).
Where two headings read alike, the source gives them in different places.

How the values were obtained:
Assay type in all cases: in vivo
[1] = system: German cockroach (Blattella germanica); assay: Test Example 2: treated filter paper with sucrose bait, German cockroach male adults, mortality; conditions: 144 h
[2] = system: house fly (Musca domeestica); assay: Test Example 3: treated filter paper with sucrose bait, house fly female adults, mortality; conditions: 24 h
Experimental: On the bottom of a polyethylene cup of 5.5 cm in diameter was placed a filter paper of the same size, to which a water dilution (500 ppm) of each of the formulations obtained from present compounds 1, 2, 3, 4, 5, 6, 7, 8, 9, 10, 11, 12, 13, 14, 15, 16, 17, 18, 19, 20, 21, 25, 26, 27, 28, 29, 32, 33, 34, 35, 36, 37, 38, 39, 40, 41, 42, 43, 44, 45, 47, 51, 52, 53, 54, 55, 60, and 61 according to Formulation Example 1 was added dropwise in an amount of 0.7 ml, and the cup was uniformly charged with about 30 mg of sucrose as a bait. Ten female adults of house fly (Musca domeestica) were set free in each cup, which was then kept covered. After 1 day, their survival was examined to determine the mortality.

[3] = system: common mosquito (Culex pipiens pallens); assay: Test Example 4: treated water, common mosquito final-instar larvae, mortality; conditions: 192 h
[4] = water dilution (500 ppm) of flowable (Formulation Example 1), 0.7 ml on filter paper, male adults, after 6 days, read-out: mortality
[5] = water dilution (500 ppm) of flowable (Formulation Example 1), 0.7 ml on filter paper, female adults, after 1 day, read-out: mortality
[6] = active ingredient 3.5 ppm in ion-exchanged water (0.7 ml of 500 ppm dilution), final-instar larvae, after 8 days, read-out: mortality

NC(=Nc1c(Cl)cc(C(F)(F)F)cc1Cl)C(F)(F)C(F)F [present compound 20, N-(2,6-Dichloro-4-trifluoromethylphenyl)-2,2,3,3-tetrafluoropropionamidine]
100%: mortality at 500 µg/mL [1] | mortality at 500 µg/mL [2] | mortality at 3.5 ppm [3]

NC(=Nc1c([N+](=O)[O-])cc(C(F)(F)F)cc1[N+](=O)[O-])C(F)(F)C(F)(F)C(F)(F)F [present compound 21, N-(2,6-Dinitro-4-trifluoromethylphenyl)-2,2,3,3,4,4,4-heptafluorobutyramidine]
100%: mortality at 500 µg/mL [1] | mortality at 500 µg/mL [2] | mortality at 3.5 ppm [3]

NC(=Nc1c([N+](=O)[O-])cc(C(F)(F)F)cc1[N+](=O)[O-])C(F)(F)Br [present compound 25, 2-Bromo-2,2-difluoro-N-(2,6-dinitro-4-trifluoromethylphenyl) acetamidine]
100%: mortality at 500 µg/mL [1] | mortality at 500 µg/mL [2] | mortality at 3.5 ppm [3]

NC(=Nc1c([N+](=O)[O-])cc(C(F)(F)F)cc1[N+](=O)[O-])C(F)(F)C(F)F [present compound 26, N-(2,6-Dinitro-4-trifluoromethylphenyl)-2,2,3,3-tetrafluoropropionamidine]
100%: mortality at 500 µg/mL [1] | mortality at 500 µg/mL [2] | mortality at 3.5 ppm [3]

NC(=Nc1c(Br)cc(C(F)(F)F)cc1[N+](=O)[O-])C(F)(F)C(F)(F)F [present compound 27, N-(2-Bromo-6-nitro-4-trifluoromethylphenyl)-2,2,3,3,3-pentafluoropropionamidine]
100%: mortality at 500 µg/mL [1] | mortality at 500 µg/mL [2] | mortality at 3.5 ppm [3]

NC(=Nc1c([N+](=O)[O-])cc(C(F)(F)F)cc1[N+](=O)[O-])C(F)(F)Cl [present compound 28, 2-Chloro-2,2-difluoro-N-(2,6-dinitro-4-trifluoromethylphenyl)acetamidine]
100%: mortality at 500 µg/mL [1] | mortality at 500 µg/mL [2] | mortality at 3.5 ppm [3]

NC(=Nc1c([N+](=O)[O-])cc(C(F)(F)F)cc1[N+](=O)[O-])C(F)(Br)C(F)(F)F (stereo not drawn) [present compound 29, 2-Bromo-N-(2,6-dinitro-4-trifluoromethylphenyl)-2,3,3,3-tetrafluoropropionamidine]
100%: mortality at 500 µg/mL [1] | mortality at 500 µg/mL [2] | mortality at 3.5 ppm [3]

NC(=Nc1c(Cl)cc(C(F)(F)F)cc1[N+](=O)[O-])C(F)(F)C(F)(F)C(F)(F)F [present compound 32, N-(2-Chloro-6-nitro-4-trifluoromethylphenyl)-2,2,3,3,4,4,4-heptafluorobutyramidine]
100%: mortality at 500 µg/mL [1, 4] | mortality at 500 µg/mL [2, 5] | mortality at 3.5 ppm [3, 6]

NC(=Nc1c([N+](=O)[O-])cc(C(F)(F)F)cc1[N+](=O)[O-])C(F)(Cl)Cl [present compound 34, 2,2-Dichloro-N-(2,6-dinitro-4-trifluoromethylphenyl)-2-fluoroacetamidine]
100%: mortality at 500 µg/mL [1] | mortality at 500 µg/mL [2] | mortality at 3.5 ppm [3]

NC(=Nc1c([N+](=O)[O-])cc(C(F)(F)F)cc1[N+](=O)[O-])C(F)(F)C(F)(F)Cl [present compound 35, 3-Chloro-N-(2,6-dinitro-4-trifluoromethylphenyl)-2,2,3,3-tetrafluoropropionamidine]
100%: mortality at 500 µg/mL [1] | mortality at 500 µg/mL [2] | mortality at 3.5 ppm [3]

CC(F)(F)C(N)=Nc1c([N+](=O)[O-])cc(C(F)(F)F)cc1[N+](=O)[O-] [present compound 36, 2,2-Difluoro-N-(2,6-dinitro-4-trifluoromethylphenyl)propionamidine]
100%: mortality at 500 µg/mL [1] | mortality at 500 µg/mL [2] | mortality at 3.5 ppm [3]

NC(=Nc1c([N+](=O)[O-])cc(C(F)(F)F)cc1[N+](=O)[O-])C(F)(F)C(F)(Cl)C(F)(F)Cl (stereo not drawn) [present compound 37, 3,4-Dichloro-N-(2,6-dinitro-4-trifluoromethylphenyl)-2,2,3,4,4-pentafluorobutyramidine]
100%: mortality at 500 µg/mL [1] | mortality at 500 µg/mL [2] | mortality at 3.5 ppm [3]

NC(=Nc1c([N+](=O)[O-])cc(C(F)(F)F)cc1[N+](=O)[O-])C(F)(F)C(F)(F)C(F)(F)C(F)F [present compound 38, N-(2,6-Dinitro-4-trifluoromethylphenyl)-2,2,3,3,4,4,5,5-octafluoropentanamidine]
100%: mortality at 500 µg/mL [1] | mortality at 500 µg/mL [2] | mortality at 3.5 ppm [3]

NC(=Nc1c([N+](=O)[O-])cc(C(F)(F)F)cc1[N+](=O)[O-])C(F)(F)C(F)(F)Br [present compound 39, 3-Bromo-N-(2,6-dinitro-4-trifluoromethylphenyl)-2,2,3,3-tetrafluoropropionamidine]
100%: mortality at 500 µg/mL [1] | mortality at 500 µg/mL [2] | mortality at 3.5 ppm [3]

NC(=Nc1c([N+](=O)[O-])cc(C(F)(F)F)cc1[N+](=O)[O-])C(F)(Cl)C(F)(F)Br (stereo not drawn) [present compound 40, 3-Bromo-2-chloro-N-(2,6-dinitro-4-trifluoromethylphenyl)-2,3,3-trifluoropropionamidine]
100%: mortality at 500 µg/mL [1] | mortality at 500 µg/mL [2] | mortality at 3.5 ppm [3]

COC(F)(C(N)=Nc1c([N+](=O)[O-])cc(C(F)(F)F)cc1[N+](=O)[O-])C(F)(F)F (stereo not drawn) [present compound 41, N-(2,6-Dinitro-4-trifluoromethylphenyl)-2-methoxy-2,3,3,3-tetrafluoropropionamidine]
100%: mortality at 500 µg/mL [1] | mortality at 500 µg/mL [2] | mortality at 3.5 ppm [3]

NC(=Nc1c([N+](=O)[O-])cc(C(F)(F)C(F)(F)F)cc1[N+](=O)[O-])C(F)(F)C(F)(F)C(F)(F)F [present compound 42, N-(2,6-Dinitro-4-pentafluoroethylphenyl)-2,2,3,3,4,4,4-heptafluorobutyramidine]
100%: mortality at 500 µg/mL [1] | mortality at 500 µg/mL [2] | mortality at 3.5 ppm [3]

NC(=Nc1c([N+](=O)[O-])cc(C(F)(F)C(F)(F)F)cc1[N+](=O)[O-])C(F)(F)C(F)(F)F [present compound 43, N-(2,6-Dinitro-4-pentafluoroethylphenyl)-2,2,3,3,3-pentafluoropropionamidine]
100%: mortality at 500 µg/mL [1] | mortality at 500 µg/mL [2] | mortality at 3.5 ppm [3]

NC(=Nc1c([N+](=O)[O-])cc(C(F)(F)F)cc1[N+](=O)[O-])C(F)(F)C(F)C(F)(F)F (stereo not drawn) [present compound 44, N-(2,6-Dinitro-4-trifluoromethylphenyl)-2,2,3,4,4,4-hexafluorobutyramidine]
100%: mortality at 500 µg/mL [1] | mortality at 500 µg/mL [2] | mortality at 3.5 ppm [3]

NC(=Nc1c([N+](=O)[O-])cc(OC(F)(F)F)cc1[N+](=O)[O-])C(F)(F)C(F)(F)C(F)(F)F [present compound 45, N-(2,6-Dinitro-4-trifluoromethoxyphenyl)-2,2,3,3,4,4,4-heptafluorobutyramidine]
100%: mortality at 500 µg/mL [1] | mortality at 500 µg/mL [2] | mortality at 3.5 ppm [3]

NC(=Nc1c([N+](=O)[O-])cc(C(F)(F)C(F)(F)C(F)(F)F)cc1[N+](=O)[O-])C(F)(F)C(F)(F)F [present compound 47, N-(2,6-Dinitro-4-heptafluoropropylphenyl)-2,2,3,3,3-pentafluoropropionamidine]
100%: mortality at 500 µg/mL [1] | mortality at 500 µg/mL [2] | mortality at 3.5 ppm [3]

CSC(F)(F)C(N)=Nc1c([N+](=O)[O-])cc(C(F)(F)F)cc1[N+](=O)[O-] [present compound 51, N-(2,6-Dinitro-4-trifluoromethylphenyl)-2,2-difluoro-2-methylthioacetamidine]
100%: mortality at 500 µg/mL [1] | mortality at 500 µg/mL [2] | mortality at 3.5 ppm [3]

CN(C)C(=Nc1c(Cl)cc(C(F)(F)F)cc1Cl)C(F)(F)C(F)(F)F [present compound 53, N′-(2,6-Dichloro-4-trifluoromethylphenyl)-2,2,3,3,3-pentafluoro-N,N-dimethylpropionamidine]
100%: mortality at 500 µg/mL [1] | mortality at 500 µg/mL [2] | mortality at 3.5 ppm [3]

CN(C)C(=Nc1c(Cl)cc(C(F)(F)F)cc1Cl)C(F)(F)Cl [present compound 54, 2-Chloro-N′-(2,6-dichloro-4-trifluoromethylphenyl)-2,2-difluoro-N,N-dimethylacetamidine]
100%: mortality at 500 µg/mL [1] | mortality at 500 µg/mL [2] | mortality at 3.5 ppm [3]

CNC(=Nc1c(Cl)cc(C(F)(F)F)cc1Cl)C(F)(F)F [present compound 55, N′-(2,6-Dichloro-4-trifluoromethylphenyl)-2,2,2-trifluoro-N-methylacetamidine]
100%: mortality at 500 µg/mL [1] | mortality at 500 µg/mL [2] | mortality at 3.5 ppm [3]

COC(=O)NC(=Nc1c(Cl)cc(C(F)(F)F)cc1Cl)C(F)(F)C(F)(F)F [present compound 60, [1-(2,6-dichloro-4-trifluoromethylphenylimino)-2,2,3,3,3-pentafluoropropyl]carbamic acid methyl ester]
100%: mortality at 500 µg/mL [1, 4] | mortality at 500 µg/mL [2, 5] | mortality at 3.5 ppm [3, 6]
